Target: T1, Solute carrier family 12 member 5 (Homo sapiens, UniProt Q9H2X9)
T1 sequence (Q9H2X9 whole entry): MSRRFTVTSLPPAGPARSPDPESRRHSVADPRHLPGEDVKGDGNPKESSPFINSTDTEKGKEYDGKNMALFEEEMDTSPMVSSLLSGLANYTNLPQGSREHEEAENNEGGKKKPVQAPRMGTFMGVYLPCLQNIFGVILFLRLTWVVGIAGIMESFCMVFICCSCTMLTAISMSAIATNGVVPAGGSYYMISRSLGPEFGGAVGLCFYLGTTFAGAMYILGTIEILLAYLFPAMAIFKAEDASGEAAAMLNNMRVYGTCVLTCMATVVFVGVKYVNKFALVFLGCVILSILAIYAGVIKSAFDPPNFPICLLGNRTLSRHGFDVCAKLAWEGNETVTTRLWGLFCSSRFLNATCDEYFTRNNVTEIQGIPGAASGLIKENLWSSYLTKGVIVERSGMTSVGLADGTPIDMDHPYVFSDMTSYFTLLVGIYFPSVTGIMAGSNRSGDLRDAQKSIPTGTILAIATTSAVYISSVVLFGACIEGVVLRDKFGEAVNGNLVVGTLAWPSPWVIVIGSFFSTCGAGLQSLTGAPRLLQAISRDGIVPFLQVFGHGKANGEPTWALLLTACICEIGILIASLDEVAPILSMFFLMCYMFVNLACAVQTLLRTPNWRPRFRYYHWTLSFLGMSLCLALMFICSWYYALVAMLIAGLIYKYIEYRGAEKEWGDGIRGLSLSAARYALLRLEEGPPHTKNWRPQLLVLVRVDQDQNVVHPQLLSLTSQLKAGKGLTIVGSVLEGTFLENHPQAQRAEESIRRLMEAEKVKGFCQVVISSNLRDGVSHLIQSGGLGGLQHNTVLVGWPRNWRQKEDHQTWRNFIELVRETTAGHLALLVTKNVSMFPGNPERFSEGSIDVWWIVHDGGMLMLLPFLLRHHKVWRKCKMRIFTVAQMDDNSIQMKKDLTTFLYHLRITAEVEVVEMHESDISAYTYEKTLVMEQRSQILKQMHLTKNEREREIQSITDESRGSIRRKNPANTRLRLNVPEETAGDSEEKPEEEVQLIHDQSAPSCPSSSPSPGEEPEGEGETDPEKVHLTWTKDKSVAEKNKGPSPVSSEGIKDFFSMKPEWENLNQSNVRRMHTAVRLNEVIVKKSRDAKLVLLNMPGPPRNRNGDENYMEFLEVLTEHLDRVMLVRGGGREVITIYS
Assay: KCC2 modulator potency by thallium flux, dose response, cell-based, HEK293 KCC2, FluoZin-2 fluorescence (AID 1736)

[1] = inactive by the depositor's call

| Structure (SMILES) | EC50 [µM] | EC50 [1] [µM] |
| --- | --- | --- |
| CN(CC(=O)N1CCN(Cc2ccccc2)CC1)S(=O)(=O)c1cccc2nsnc12 [MLS000674627] | 0.58 | – |
| O=C(CN(c1ccc2c(c1)OCCO2)S(=O)(=O)c1ccccc1)N1CCN(Cc2ccccc2)CC1 [MLS000693333] | 11.7 | – |
| O=C(Nc1ccc2oc(-c3ccccc3F)nc2c1)c1ccco1 [MLS000709180] | 66.5 | – |
| O=C(c1ccccc1SCc1ccc(F)cc1)N1CCOCC1 [MLS000712999] | 6.48 | – |
| CC(/C=C1\SC(=S)N(C(C(=O)O)C(C)C)C1=O)=C\c1ccccc1 (configuration not stated) [MLS000713304] | – | 2.68 |
| O=C(NC1CCCC1)C(c1ccncc1)N(Cc1ccco1)C(=O)c1ccc(-c2ccccc2)[nH]1 (configuration not stated) [MLS000718066] | 19.2 | – |
| O=C(CSc1ccc(-c2ccccc2)nn1)Nc1ccc2c(c1)OCCO2 [MLS000724887] | 3.48 | – |
| CC(=O)NCC1CCCN(c2nc3nonc3nc2N(C)Cc2ccccc2)C1 (configuration not stated) [MLS000731683] | 2.68 | – |
| CCc1cc(C(=O)N2CCCC(CNC(=O)c3ccc(-c4ccccc4)cc3)C2)no1 (configuration not stated) [MLS000731765] | 3.2 | – |
| CC(=O)NCCC(=O)N1CCCC(CNC(=O)c2ccc(-c3ccccc3)cc2)C1 (configuration not stated) [MLS000733794] | 5 | – |
| CSCCC(=O)N1CCCC(CNC(=O)c2ccc(-c3ccccc3)cc2)C1 (configuration not stated) [MLS000733867] | 7.78 | – |
| Cc1ccc(NC(=O)CCCSc2ccccc2)cc1S(=O)(=O)N1CCOCC1 [MLS000761060] | 6.79 | – |
| COc1ccccc1NC(=S)NNC1=c2cc(Br)ccc2=NC1=O [MLS000778253] | 0.71 | – |
| O=C(NNc1nc(-c2ccccc2)cs1)c1cccs1 [MLS000858987] | 0.174 | – |
| CNc1ccc2oc(C[C@H]3O[C@@]4(CC[C@H]3C)O[C@H]([C@H](C)C(=O)c3ccc[nH]3)[C@H](C)C[C@H]4C)nc2c1C(=O)O [MLS001056783] | 11.3 | – |
| Cc1csc(NC(=O)CSc2ccc(-c3ccccc3)nn2)n1 [N-(4-methyl-1,3-thiazol-2-yl)-2-(6-phenylpyridazin-3-yl)sulfanyl-ethanamide] | 0.249 | – |

| Structure (SMILES) | EC50 [µM] | EC50 [1] [µM] |
| --- | --- | --- |
| O=C(NCCc1c[nH]c2ccccc12)c1cc(S(=O)(=O)N2CCCCC2)ccc1N1CCOCC1 [N-[2-(1H-indol-3-yl)ethyl]-2-morpholin-4-yl-5-piperidin-1-ylsulfonylbenzamide] | 208 | – |
| CC(C)(C)NC(=O)C(c1ccncc1)N(Cc1ccco1)C(=O)c1ccc(-c2ccccc2)[nH]1 (configuration not stated) [N-[2-(tert-butylamino)-2-oxo-1-pyridin-4-ylethyl]-N-(furan-2-ylmethyl)-5-phenyl-1H-pyrrole-2-carboxamide] | 7.02 | – |
| CC(C)(C)NC(=O)C(c1cccs1)N(CC1CCCO1)C(=O)c1ccc(-c2ccccc2)[nH]1 (configuration not stated) [N-[2-(tert-butylamino)-2-oxo-1-thiophen-2-ylethyl]-N-(2-oxolanylmethyl)-5-phenyl-1H-pyrrole-2-carboxamide] | 0.449 | – |
| O=C(NN1C(=O)/C(=C/c2nc3ccccc3[nH]2)SC1=S)c1ccccc1 [N-[(5Z)-5-(1H-benzimidazol-2-ylmethylidene)-4-oxidanylidene-2-sulfanylidene-1,3-thiazolidin-3-yl]benzamide] | 0.38 | – |
| O=C(NN1C(=O)/C(=C/c2nc3ccccc3[nH]2)SC1=S)c1ccccc1Cl [N-{5-[1-(1H-Benzoimidazol-2-yl)-meth-(Z)-ylidene]-4-oxo-2-thioxo-thiazolidin-3-yl}-2-chloro-benzamide] | 0.0822 | – |
| Cc1ccc2[nH]c(=O)c(CN(CCc3ccccc3)Cc3nnnn3CC3CCCO3)cc2c1 (configuration not stated) [SMR000003177] | 4.26 | – |
| O=C(CSc1nnc(-c2c[nH]c3ccccc23)o1)N1CCCCC1 [SMR000003748] | 1.81 | – |
| c1ccc(-c2nnc(Sc3ncnc4c3cnn4-c3ccccc3)[nH]2)cc1 [SMR000019566] | 5.95 | – |
| CC(C)NC(=S)NNC1=c2cc(C(C)C)ccc2=NC1=O [SMR000242097] | 5.13 | – |
| CN1/C(=C\C(=S)NC(=O)c2cccc(Br)c2)C(C)(C)c2ccccc21 [SMR000254682] | 5.4 | – |
| CC(=NNC(=S)Nc1c(C)cccc1C)c1cc2ccccc2o1 [SMR000260555] | 4.46 | – |
| Cc1nc(SCc2ccc(F)cc2)c([N+](=O)[O-])[nH]1 [SMR000271028] | 6.28 | – |
| Cc1ccc(C2=CSC3=NNC4(CCCCC4)NN23)cc1 [SMR000306481] | 2.52 | – |
| CN(C)S(=O)(=O)c1ccc(Cl)c(C(=O)Nc2nc3ccccc3[nH]2)c1 [SMR000370637] | 2.11 | – |
| O=C(O)CC/C(=C\c1cccc(NC(=O)c2ccccc2Cl)c1)c1nc2ccccc2s1 [SMR000371789] | – | 4.76 |
| COc1cc(CC(C)N)c(OC)cc1I (configuration not stated) [[125I]2,5-dimethoxy-4-iodoamphetamine] | 290 | – |

Source: BindingDB's records for doi:10.7270/Q2TX3CSC (Vanderbilt Screening Center for GPCRs, Ion Channels and …, 2009)
